In ChEMBL document CHEMBL1201862, “PubChem BioAssay data set” (2004):
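Compound exposure: 48 hours, 5 concentrations, 96-well plates. GI50 = concentration required for 50% inhibition of growth.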 Activity calls are given as the source filed them. Rule as the data show it: active = GI50 up to about 1.1 µM and inactive = higher.

Legend:
Assay in all cases: NCI anticancer screen, dose series, 48 h
[1] = tested on: K562
[2] = tested on: NCI-H522
[3] = tested on: CCRF-CEM
[4] = tested on: ACHN
[5] = tested on: OVCAR-3
[6] = tested on: HCT-15
[7] = tested on: OVCAR-5
[8] = tested on: PC-3
[9] = tested on: MCF7
[10] = tested on: UACC-62
[11] = tested on: MDA-MB-435
[12] = tested on: U-251
[13] = tested on: UO-31
[14] = tested on: HT-29
[15] = tested on: OVCAR-4
[16] = tested on: A549
[17] = tested on: MOLT-4
[18] = tested on: SF-268
[19] = tested on: OVCAR-8
[20] = tested on: SW-620
[21] = tested on: SN12C
[22] = tested on: NCI/ADR-RES
[23] = tested on: Malme-3M
[24] = tested on: HCC 2998
[25] = tested on: HOP-62
[26] = tested on: M14
[27] = tested on: COLO 205
[28] = tested on: NCI-H23
[29] = tested on: 786-0
[30] = tested on: Hs-578T
[31] = tested on: SK-OV-3
[32] = tested on: KM12
[33] = tested on: T47D
[34] = tested on: NCI-H460
[35] = tested on: MDA-MB-231
[36] = tested on: SK-MEL-2
[37] = tested on: LOX IMVI
[38] = tested on: HCT-116
[39] = tested on: DU-145
[40] = tested on: CAKI-1
[41] = tested on: TK-10
[42] = tested on: SNB-19
[43] = tested on: HOP-92
[44] = tested on: RXF 393
[45] = tested on: SK-MEL-5
[46] = tested on: RPMI-8226
[47] = tested on: SNB-75
[48] = tested on: IGROV-1
[49] = tested on: UACC-257
[50] = tested on: EKVX
[51] = tested on: SK-MEL-28
[52] = tested on: SF-295
[53] = tested on: NCI-H226
[54] = tested on: SF-539
[55] = tested on: SR
[56] = tested on: MDA-N
[57] = tested on: HL-60
[58] = tested on: A498

For `Nc1ccc(S(=O)(=O)Nc2ncccn2)cc1` [SULFADIAZINE, SILVER], the GI50 [1] was 2.12 µM (inactive), the GI50 [2] was 1.77 µM (inactive) and the GI50 [3] was 1.82 µM (inactive).

For `C=C1N(C=O)C(C)(C)N(O)C1(C)C`, the GI50 [4] was > 100 µM (inactive), the GI50 [5] was > 100 µM (inactive) and the GI50 [6] was > 100 µM. The GI50 [7] was > 100 µM (inactive), the GI50 [8] was > 100 µM (inactive) and the GI50 [9] was > 100 µM (inactive). The GI50 [10] was > 100 µM (inactive), the GI50 [11] was > 100 µM (inactive) and the GI50 [12] was > 100 µM (inactive). For the same compound, the GI50 [13] was > 100 µM (inactive), the GI50 [14] was > 100 µM (inactive) and the GI50 [15] was > 100 µM (inactive). The GI50 [16] was > 100 µM (inactive), the GI50 [17] was 29.1 µM (inactive) and the GI50 [18] was > 100 µM (inactive). For the same compound, the GI50 [19] was > 100 µM (inactive), the GI50 [20] was > 100 µM (inactive) and the GI50 [21] was > 100 µM (inactive). The GI50 [22] was > 100 µM (inactive), the GI50 [23] was > 100 µM (inactive) and the GI50 [24] was > 100 µM (inactive). For the same compound, the GI50 [25] was > 100 µM (inactive), the GI50 [26] was > 100 µM (inactive) and the GI50 [27] was > 100 µM (inactive). The GI50 [28] was > 100 µM (inactive), the GI50 [29] was > 100 µM (inactive) and the GI50 [30] was > 100 µM (inactive). For the same compound, the GI50 [31] was > 100 µM (inactive), the GI50 [32] was > 100 µM (inactive) and the GI50 [33] was > 100 µM (inactive). The GI50 [34] was > 100 µM (inactive), the GI50 [35] was > 100 µM (inactive) and the GI50 [36] was > 100 µM (inactive). The GI50 [37] was > 100 µM (inactive), the GI50 [38] was > 100 µM (inactive) and the GI50 [39] was > 100 µM (inactive). For the same compound, the GI50 [40] was > 100 µM (inactive), the GI50 [41] was > 100 µM (inactive) and the GI50 [42] was > 100 µM (inactive). The GI50 [43] was > 100 µM (inactive), the GI50 [44] was > 100 µM (inactive) and the GI50 [45] was > 100 µM (inactive). For the same compound, the GI50 [46] was > 100 µM (inactive), the GI50 [47] was > 100 µM (inactive) and the GI50 [48] was > 100 µM (inactive). For the same compound, the GI50 [49] was > 100 µM (inactive), the GI50 [50] was > 100 µM (inactive) and the GI50 [51] was > 100 µM (inactive). The GI50 [52] was > 100 µM (inactive), the GI50 [53] was > 100 µM (inactive) and the GI50 [54] was > 100 µM (inactive).

In the case of `O=C1NCN(c2ccccc2)C12CCN(CC1COc3ccccc3O1)CC2` (stereo not given) [SPIROXATRINE], the GI50 [4] is reported as 84.1 µM (inactive), the GI50 [5] is reported as 28.6 µM (inactive) and the GI50 [6] is reported as > 100 µM. For the same compound, the GI50 [7] was > 100 µM (inactive), the GI50 [1] was > 100 µM (inactive) and the GI50 [8] was 51.9 µM (inactive). For the same compound, the GI50 [9] was > 100 µM (inactive), the GI50 [10] was > 100 µM (inactive) and the GI50 [11] was > 100 µM (inactive). For the same compound, the GI50 [12] was 31.3 µM (inactive), the GI50 [55] was > 100 µM (inactive) and the GI50 [13] was 50.7 µM (inactive). The GI50 [56] was > 100 µM (inactive), the GI50 [14] was > 100 µM (inactive) and the GI50 [15] was 33.4 µM (inactive). For the same compound, the GI50 [16] was > 100 µM (inactive), the GI50 [17] was > 100 µM (inactive) and the GI50 [57] was > 100 µM (inactive). The GI50 [18] was 65.2 µM (inactive), the GI50 [19] was 69.3 µM (inactive) and the GI50 [20] was > 100 µM (inactive). The GI50 [21] was > 100 µM (inactive), the GI50 [22] was 47.5 µM (inactive) and the GI50 [23] was 40.6 µM (inactive). For the same compound, the GI50 [24] was > 100 µM (inactive), the GI50 [25] was 22.5 µM (inactive) and the GI50 [26] was > 100 µM (inactive). The GI50 [27] was > 100 µM (inactive), the GI50 [28] was 44.3 µM (inactive) and the GI50 [29] was 31.6 µM (inactive). For the same compound, the GI50 [30] was 23.5 µM (inactive), the GI50 [31] was 51.3 µM (inactive) and the GI50 [33] was 54 µM (inactive). The GI50 [34] was > 100 µM (inactive), the GI50 [35] was 59.7 µM (inactive) and the GI50 [36] was 38.4 µM (inactive). For the same compound, the GI50 [37] was > 100 µM (inactive), the GI50 [58] was 71.6 µM (inactive) and the GI50 [2] was 91.8 µM (inactive). For the same compound, the GI50 [38] was > 100 µM (inactive), the GI50 [39] was 77.4 µM (inactive) and the GI50 [40] was 39.8 µM (inactive). For the same compound, the GI50 [41] was 46.9 µM (inactive), the GI50 [42] was 30.3 µM (inactive) and the GI50 [44] was 29.9 µM (inactive). The GI50 [45] was > 100 µM (inactive), the GI50 [3] was > 100 µM (inactive) and the GI50 [46] was > 100 µM (inactive). The GI50 [47] was 36.4 µM (inactive), the GI50 [48] was 27.5 µM (inactive) and the GI50 [49] was 36.6 µM (inactive). The GI50 [50] was 43.5 µM (inactive), the GI50 [51] was > 100 µM (inactive) and the GI50 [52] was 33.8 µM (inactive). For the same compound, the GI50 [53] was 49.9 µM (inactive) and the GI50 [54] was 62.5 µM (inactive).
